These results are taken from US7722893B2, “Use of substitute 2,4-bis (alkylamino) pyrimidines or quinzolines as antimicrobials” (Ciba Specialty Chemicals Corporation, priority 2003, dated 2010).

One assay has as its system S. gordonii ATCC 10558. Kind of assay: MIC of a broadened organism spectrum: oral organisms. The note with it: Streptococcus gordonii, ATCC10558, 24 hours aerobic with 10% CO2, read-out: minimum inhibiting concentration MIC, oral organisms. The assay is classed as cell-based, Streptococcus gordonil. An excerpt: (§1) Determination of the Minimum Inhibiting Concentration MIC (ppm) of a Broadened Organism Spectrum: Oral Organisms
(§2) • Medium: thioglycolate bouillon with hemin and menadione Columbia bouillon with hemin and menadione for P. gingivalis and P. nigrescens • Dilution medium: the appropriate amount of the substances was pipetted directly into the medium. • Test organisms: Actinobacillus actinomycetemcomitans ATCC 43718 • Streptococcus gordonil ATCC 10558 • Streptococcus mutans ATCC 33402 • Actinomyces viscosus ATCC 43146 • Fusobacterium nucleatum subsp. polymorphum ATCC 10953 • Porphyromonas gingivalis ATCC 33277 • Prevotella nigrescens ATCC 33563 • Incubation: 7-10 days at 37° C anaerobic, or 24 hours aerobic with 10% CO2 for Streptococci and A. actinomycetemcomitans • Test solution: Stock solutions of all the test substances in ethanol at 1500 ppm (w/w) are used. Test Principle:
(§3) Bacteria are removed from blood agar plates using cotton wool buds and a suitable optical density (McFarland 0.5) is adjusted in an appropriate medium; that solution is used undiluted for F. nucleatum and P. nigrescens, and in a dilution of 1:20 for the other strains. 0.1 ml of bacterial culture is added per 2 ml of active ingredient solution and incubation is carried out as described above.

Assay [1] deals with Prevotella nigrescens ATCC 33563. Described as above. The assay is classed as cell-based. The note with it: Prevotella nigrescens, ATCC33563; P. nigrescens ATCC 33563; Columbia bouillon, 7-10 days at 37° C anaerobic; read-out: minimum inhibiting concentration MIC, oral organisms.
Excerpt: as §1, §2, §3

Assay [2] deals with Actinomyces viscosus ATCC 43146. The assay is described as above. As to conditions: Actinomyces viscosus, ATCC43146; A. viscosus ATCC 43146; 7-10 days at 37° C anaerobic; read-out: minimum inhibiting concentration MIC, oral organisms. The assay is classed as cell-based.
Excerpt: as §1, §2, §3

Assay [3] has as its system Streptococcus mutans ATCC 33402. Described as above. It is filed as cell-based. As to conditions: Streptococcus mutans, ATCC33402; S. mutans ATCC 33402; 24 hours aerobic with 10% CO2; read-out: minimum inhibiting concentration MIC, oral organisms.
Excerpt: as §1, §2, §3

In assay [4] the test system is Fusobacterium nucleatum subsp. polymorphum ATCC 10953. The assay is described as above. As to conditions: Fusobacterium nucleatum, ATCC10953; F. nucleatum subsp. polymorphum ATCC 10953; 7-10 days at 37° C anaerobic; read-out: minimum inhibiting concentration MIC, oral organisms. It is filed as cell-based.
Excerpt: as §1, §2, §3

The subject of assay [5] is Actinobacillus actinomycetemcomitans ATCC 43718. The description is as above. It is filed as cell-based. As to conditions: Aggregatibacter actinomycetemcomitans, ATCC43718; A. actinomycetemcomitans ATCC 43718; 24 hours aerobic with 10% CO2; read-out: minimum inhibiting concentration MIC, oral organisms.
Excerpt: as §1, §2, §3

Another assay deals with C. xerosis ATCC 373. Briefly: MIC of a broadened organism spectrum (agar). It is filed as cell-based. The note with it: Corynebacterium xerosis, ATCC373, 72 h, 3 days incubation, read-out: minimum inhibiting concentration MIC. An excerpt:
(§4) Determination of the Minimum Inhibiting Concentration MIC [ppm] of a Broadened Organism Spectrum
(§5) • Medium: Casein/soybean flour peptone agar (Merck) • *Sabouraud 4% glucose agar (Merck) • Dilution medium: sterile 0.85% NaCl solution • Test organisms: Staphylococcus aureus ATCC 6853 and 9144 • Staphylococcus epidermidis ATCC 12228 • C. xerosis ATCC 373 ** • C. minutissimum ATCC 23348 • Proplonibacterium acnes ATCC 6919 • Escherichia coli ATCC 10536 and NCTC 8196 • Proteus vulgaris ATCC 6896 • Klebsiella pneumoniae ATCC 4352 • Salmonella choleraesuis ATCC 9184 • Pseudomonas aeruginosa ATCC 15442 • *Candida albicans ATCC 10231 • *Aspergillus niger ATCC 6275 • Incubation: 24 hours at 37° C. • *3 days at 28° C. • Test solution: 1% stock solutions of all the test substances in a suitable solvent are prepared and diluted in serial dilutions (1:10, 1:100 and 1:1000 dilution), where possible diluted to such an extent that the end concentrations in agar are from 500 ppm to 10 ppm. Test principle:
(§6) 0.3 ml of the dilution stage in question is mixed with 15 ml of still-liquid nutrient medium.
(§7) When the nutrient substrate has solidified, 10 μl portions of a suitable organism dilution of the test strains in 0.85% NaCl solution are spotted onto the agar medium: […]

Assay [6] has as its system Salmonella choleraesuis ATCC 9184. Kind of assay: MIC of a broadened organism spectrum (agar). It is filed as cell-based. The note with it: Salmonella enterica, 24 hours at 37° C., read-out: minimum inhibiting concentration MIC.
Excerpt: as §4, §5, §6, §7

In assay [7] the test system is Staphylococcus epidermidis ATCC 12228. Kind of assay: MIC of a broadened organism spectrum (agar). The assay is classed as cell-based. The note with it: ATCC12228, 24 hours at 37° C., read-out: minimum inhibiting concentration MIC.
Excerpt: as §4, §5, §6, §7

In assay [8] the test system is Propionibacterium acnes ATCC 6919. Kind of assay: MIC of a broadened organism spectrum (agar). The assay is classed as cell-based. As to conditions: Cutibacterium acnes, ATCC6919, 72 h, 3 days incubation under anaerobic conditions, read-out: minimum inhibiting concentration MIC.
Excerpt: as §4, §5, §6, §7

The subject of assay [9] is Klebsiella pneumoniae ATCC 4352. Briefly: MIC of a broadened organism spectrum (agar). The assay is classed as cell-based. The note with it: ATCC4352, 24 hours at 37° C., read-out: minimum inhibiting concentration MIC.
Excerpt: as §4, §5, §6, §7

Assay [10] relates to Candida albicans ATCC 10231. Briefly: MIC of a broadened organism spectrum (agar). It is filed as cell-based. The note with it: ATCC10231, 72 h, Sabouraud 4% glucose agar, 3 days at 28° C., read-out: minimum inhibiting concentration MIC.
Excerpt: as §4, §5, §6, §7

Assay [11] concerns Proteus vulgaris ATCC 6896. Kind of assay: MIC of a broadened organism spectrum (agar). The assay is classed as cell-based. As to conditions: ATCC6896, 24 hours at 37° C., read-out: minimum inhibiting concentration MIC.
Excerpt: as §4, §5, §6, §7

For assay [12], the system named is Pseudomonas aeruginosa ATCC 15442. Briefly: MIC of a broadened organism spectrum (agar). The assay is classed as cell-based. The note with it: ATCC15442, 24 hours at 37° C., read-out: minimum inhibiting concentration MIC.
Excerpt: as §4, §5, §6, §7

Assay [13] relates to Staphylococcus aureus ATCC 6538. Kind of assay: MIC of a broadened organism spectrum (agar). The assay is classed as cell-based. As to conditions: ATCC6538, 24 hours at 37° C., read-out: minimum inhibiting concentration MIC.
Excerpt: as §4, §5, §6, §7

Assay [14] has as its system Staphylococcus aureus ATCC 9144. Briefly: MIC of a broadened organism spectrum (agar). It is filed as cell-based. The note with it: ATCC9144, 24 hours at 37° C., read-out: minimum inhibiting concentration MIC.
Excerpt: as §4, §5, §6, §7

The subject of assay [15] is Aspergillus niger ATCC 6275. Briefly: MIC of a broadened organism spectrum (agar). The note with it: ATCC6275, 72 h, Sabouraud 4% glucose agar, 3 days at 28° C., read-out: minimum inhibiting concentration MIC. It is filed as cell-based.
Excerpt: as §4, §5, §6, §7

Assay [16] deals with C. minutissimum ATCC 23348. Briefly: MIC of a broadened organism spectrum (agar). The assay is classed as cell-based. As to conditions: Corynebacterium minutissimum, ATCC23348, 72 h, 3 days incubation (Table 3a), read-out: minimum inhibiting concentration MIC.
Excerpt: as §4, §5, §6, §7

For assay [17], the system named is Escherichia coli NCTC 8196. Kind of assay: MIC of a broadened organism spectrum (agar). The assay is classed as cell-based. The note with it: NCTC8196, 24 hours at 37° C., read-out: minimum inhibiting concentration MIC.
Excerpt: as §4, §5, §6, §7

For assay [18], the system named is Escherichia coli ATCC 10536. Kind of assay: MIC of a broadened organism spectrum (agar). As to conditions: ATCC10536, 24 hours at 37° C., read-out: minimum inhibiting concentration MIC. It is filed as cell-based.
Excerpt: as §4, §5, §6, §7

The subject of the next assay is P. gingivalis ATCC 3277. Briefly: MIC of a broadened organism spectrum: oral organisms. The assay is classed as cell-based, Porphyromonas gingivalis. As to conditions: Porphyromonas gingivalis, ATCC3277, Columbia bouillon, 7-10 days at 37° C anaerobic, read-out: minimum inhibiting concentration MIC, oral organisms.
Excerpt: as §1, §2, §3

For the compound `Cc1cc(NCCc2ccccc2)nc(NCCc2ccccc2)n1` [PY9, N,N′-Bis(2,4-diphenylethylamino)-6-methylpyrimidine], the MIC in the assay with S. gordonii ATCC 10558 is 15 µg/mL; in assay [1], 7.5 µg/mL; in assay [2], 3.75 µg/mL; in [3] it was 15 µg/mL; in [4] it was 15 µg/mL; in assay [5], more than 15 µg/mL. Moreover, the MIC in the assay with C. xerosis ATCC 373 came to 1.95 µg/mL; in assay [6], 250 µg/mL; in [7], 7.8 µg/mL; in assay [8], 7.8 µg/mL; in assay [9], 7.8 µg/mL; in assay [10], 62.5 µg/mL. For the same compound, the MIC in [11] was more than 500 µg/mL; in [12], more than 500 µg/mL; in assay [13], 7.8 µg/mL; in assay [14], 7.8 µg/mL; in assay [15], 250 µg/mL; in assay [16], 3.9 µg/mL. Also, the MIC is 15.6 µg/mL in assay [17], 250 µg/mL in assay [18] and 7.5 µg/mL with P. gingivalis ATCC 3277.
